Ends that are not written are not given here.
Assays:
pepsin [1] = molecular target: T1, pepsin (Sus scrofa, UniProt P00791); experiment: Simulated gastric digestion with pepsin, products analysed by LC–MS/MS; format: in vitro ADME, porcine; conditions: 37 °C
T1 construct: purchased Shanghai Aladdin Biochemical Technology Co., Ltd; host or cells: porcine gastric mucosa
Protocol: (§1) The fractionation of the peak with the highest anti-inflammatory activity obtained from RP-LC was further identified by LC-MS/MS equipped with a reversed phase BEH C18 analytical column (1.7 μm, 2.1 × 100 mm, Waters Inc., Milford, MA, USA). The fraction of peptide with the highest anti-inflammatory activity obtained from RP-LC was further Identified by LC-MS/MS. Eluent A: 0.065% TFA in 2% acetonitrile; Eluent B: 0.050% TFA in 80% acetonitrile. The gradient elution parameters: 0–30 min, 100% eluent A; 30–60 min, 30–80% eluent B; 60–80 min, 100% eluent A. The above flow rates were 0.5 mL/min. The fractions were detected at 280 nm by an ultraviolet detector. The flow entered directly into the MS/MS system (MALDI SYNAPT Q-TOF MS, Waters, Inc. Milford, MA, USA) for multiple reaction measurement. The recording mass range of precursor ions was m/z 50–4000. Nitrogen was used as a collision gas. Capillary voltage was set at 3.5 kV and cone voltage at 20 V. Source block temperature was set at 100 °C and desolvation temperature at 250 °C. Collision energy and detector voltage were 15 and 1600 V, respectively. The desolvation and cone gas flow were 500 and 50 L/h, respectively. The N-terminal fragment ion series (B series) and the C-terminal fragment ion series (Y series) were analysed. The amino acid sequence of the peptide was obtained by comprehensive analysis of B and Y ion series through Mass Lynx V4.1 operating system.
(§2) The stability of GBP in response to pepsin and trypsin in the simulation of GI digestion in vitro was examined based on Xie et al.. First, 2 g of NaCl and 3.2 g of pepsin from porcine gastric mucosa (Purity: 1:3000, CAS: 9001-75-6, Shanghai Aladdin Biochemical Technology Co., Ltd., Shanghai, China) were added to 800 mL of ultrapure water. The pH of the solution was adjusted with 6 mol/L hydrochloric acid to 3.0, and the volume was adjusted with ultrapure water to 1 L (as simulated gastric juice). […]

pepsin [2] = system: T2, pepsin; experiment: as above; format: in vitro ADME, porcine; conditions: pig, simulated gastric fluid; simulated gastric juice (pepsin from porcine gastric mucosa, NaCl), pH 3.0, 200 μg/mL peptide, 2 h, 37 °C; LC–MS/MS; read-out: share of IVYPWTQR split into smaller fragments after pepsin treatment
T2 construct: purchased Shanghai Aladdin Biochemical Technology Co., Ltd; host or cells: porcine gastric mucosa
Protocol: as §1, §2

trypsin = molecular target: T3, trypsin (Sus scrofa, UniProt P00761); experiment: Simulated intestinal digestion with trypsin; format: in vitro ADME; conditions: simulated intestinal fluid (trypsin from porcine pancreas, bile salt), pH 7.6, 2 h, 37 °C, after pepsin step; judged by unchanged cytokine levels
T3 construct: purchased Shanghai Aladdin Biochemical Technology Co., Ltd; host or cells: porcine pancreas
Protocol: The stability of GBP in response to pepsin and trypsin in the simulation of GI digestion in vitro was examined based on Xie et al.. First, 2 g of NaCl and 3.2 g of pepsin from porcine gastric mucosa (Purity: 1:3000, CAS: 9001-75-6, Shanghai Aladdin Biochemical Technology Co., Ltd., Shanghai, China) were added to 800 mL of ultrapure water. The pH of the solution was adjusted with 6 mol/L hydrochloric acid to 3.0, and the volume was adjusted with ultrapure water to 1 L (as simulated gastric juice). Then, 0.68 g of potassium dihydrogen phosphate and 7.7 mL sodium hydroxide solution (0.2 mol/L) were dissolved in 70 mL of ultrapure water; 1 g of trypsin from porcine pancreas (Purity: ≥250 units/mg, CAS: […], Shanghai Aladdin Biochemical Technology Co., Ltd., Shanghai, China) and 6 g of bile salt were added and dissolved. The above solution was mixed and supplemented with ultrapure water to 1 L. Finally, the pH of the mixed solution was adjusted to 7.6 with sodium hydroxide solution (0.2 mol/L) (as simulated intestinal fluid). The 200 μg/mL peptide solution was adjusted to a pH of 3.0 with a 1 mol/L HCl solution, and 5 mL of simulated gastric juice was added to the solution and the reaction was carried out for 2 h in 37 °C water bath. Then, the simulated gastric digestion was terminated by being heated at 100 °C for 10 min. […]

T1 sequence (P00791 60-385): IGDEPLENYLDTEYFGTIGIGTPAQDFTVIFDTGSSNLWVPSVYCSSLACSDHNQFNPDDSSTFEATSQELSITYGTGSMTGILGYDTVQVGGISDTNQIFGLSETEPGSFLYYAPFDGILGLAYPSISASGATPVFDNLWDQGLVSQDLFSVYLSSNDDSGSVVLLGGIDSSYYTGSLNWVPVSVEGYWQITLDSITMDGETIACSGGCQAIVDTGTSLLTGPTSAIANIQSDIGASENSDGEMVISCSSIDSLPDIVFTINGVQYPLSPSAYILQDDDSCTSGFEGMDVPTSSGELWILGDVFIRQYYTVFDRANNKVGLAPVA
T3 sequence (P00761 9-231): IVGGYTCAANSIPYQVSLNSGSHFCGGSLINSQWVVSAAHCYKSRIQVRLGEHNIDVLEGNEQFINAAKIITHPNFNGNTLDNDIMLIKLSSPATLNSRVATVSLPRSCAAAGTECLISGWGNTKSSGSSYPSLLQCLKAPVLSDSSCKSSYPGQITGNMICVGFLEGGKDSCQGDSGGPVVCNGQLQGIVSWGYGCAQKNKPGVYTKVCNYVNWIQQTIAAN

IVYPWTQR [IVYPWTQR, IIe-Val-Tyr-Pro-Trp-Thr-Gln-Arg]
stability against pepsin (pepsin [1]; simulated gastric digestion, pepsin, pH 3.0, 2 h): sensitive to pepsin | metabolised at 2 h, 200 μg/mL (pepsin [2]): ~45.2% | stability against trypsin (trypsin): robustly resists trypsin

YPWTQR [fragment of IVYPWTQR after pepsin treatment]
share of fragment formed from IVYPWTQR after pepsin treatment (pepsin [1]; simulated gastric juice (pepsin), pH 3.0, 200 μg/mL peptide, 2 h, LC–MS/MS): 25.19%

— PMC9781827, “Isolation and Identification of Anti-Inflammatory Peptide from Goose Blood Hydrolysate to Ameliorate LPS-Mediated Inflammation and Oxidative Stress in RAW264.7 Macrophages” (Molecules, 2022)
